One may read the melting point as the temperature of the solid-liquid transition.

On to `N=C(NCCCCN1CCC(CCCC(N)=O)CC1)NC(=O)c1nc(Cl)c(N)nc1N` [Example 1, 4-(1-{4-[N′-(3,5-diamino-6-chloropyrazine-2-carbonyl)guanidino]-butyl}piperidin-4-yl)butyramide], for which the melting point lay in the range of 143 to 147 °C.

For the origin of these results see US8143256B2, “Cyclic amide and ester pyrazinoylguanidine sodium channel blockers” (Parion Sciences, Inc., priority 2004, dated 2012).
